From patent publication US20230355647A1, “Marker for determining anti-cancer effects of mitochondrial oxidative phosphorylation pathway inhibitor” (NANJING SHIJIANG MEDICINE TECHNOLOGY CO., LTD, priority 2020, published 2023)

What was measured:
[1] = test system: G-401; assay: Cell viability (CellTiter-Glo), G-401; type: cell-based; conditions: Homo sapiens; G-401 cell line, 3-4 days of culture
Description: (§1) Cell viability was detected using the Promega CellTiter-Glo kit, the kit reflected cell viability by directly measuring intracellular ATP content. The inhibitory effect (IC50 value) of Gboxin, a mitochondrial oxidative phosphorylation pathway inhibitor, on different tumor cell lines was tested in the Example. The name, source, and culture condition of each tumor cell line were as follows: Cell line G-401 (ATCC, No. CRL-1441) was cultured in 10% fetal bovine serum-containing McCoy's 5a medium (+P/S). […] Cell viability was detected using the Promega CellTiter-Glo kit, the kit reflected cell viability by directly measuring intracellular ATP content.

[2] = test system: NCI-H82; assay: Cell viability (CellTiter-Glo), NCI-H82; type: cell-based; conditions: Homo sapiens; NCI-H82 cell line, 3-4 days of culture
Description: as §1, with “NCI-H82” for “G-401”, “HTB-175)” for “CRL-1441)”, “RPMI1640” for “McCoy's 5a”

SMILES: CCc1n(CC(=O)O[C@@H]2C[C@H](C)CC[C@H]2C(C)C)c2ccccc2[n+]1C.[Cl-] [Gboxin]
- IC50 [1]: 777 nM
- IC50 [2]: 398 nM
